Measurements reported in ChEMBL document CHEMBL4422653, “Discovery of a potent tyrosine kinase AXL inhibitor bearing the 3-((2,3,4,5-tetrahydro-1H-benzo[d]azepin-7-yl)amino)pyrazine core” (Bioorg Med Chem Lett, 2019).

Tests used:
Type in all cases: ADME, organism-based
Settings in all cases: in vivo
[1] = AUC (0 to infinity) in Sprague-Dawley rat at 1 mg/kg, iv; design: dose 1 mg/kg, route intravenous, time infinity
[2] = Cmax in Sprague-Dawley rat at 3 mg/kg, po; design: dose 3 mg/kg, route oral
[3] = Half life in Sprague-Dawley rat at 1 mg/kg, iv
[4] = Tmax in Sprague-Dawley rat at 3 mg/kg, po
[5] = AUC (0 to infinity) in Sprague-Dawley rat at 3 mg/kg, po; design: dose 3 mg/kg, time infinity, route oral
[6] = Clearance in Sprague-Dawley rat at 1 mg/kg, iv
[7] = Oral bioavailability in Sprague-Dawley rat at 3 mg/kg

AUC(0-inf) [1]: 179 ng·h/mL | Cmax [2]: 23.8 ng/mL | half-life [3]: 2.12 h | Tmax [4]: 4 h | AUC(0-inf) [5]: 199 ng·h/mL | clearance [6]: 93.2 mL/min/kg | bioavailability [7]: 24.8%
Structure (SMILES): CCc1nc(C(N)=O)c(Nc2ccc3c(c2)CCN(C2CCCC2)CC3)nc1NC1CCOCC1
